We go through 17 molecules from patent publication EP4752152A1, “STEROID COMPOUND, AND PREPARATION METHOD THEREFOR AND USE THEREOF” (Cholesgen (Shanghai) Co.Ltd., priority 2023, dated 2025).

In one test the test system is SREBP pathway. As to the kind of experiment: SREBP luciferase reporter gene system (SRE-luciferase assay). In kind it is cell-based, human. To be noted: Homo sapiens, Huh-7, 16 h, Huh-7/SRE-luc cells, sterol-deficient medium, 0.01-10 µM. The essentials:
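Huh-7 cells stably carrying LDLR promoter-luciferase plus GFP were treated 16 h in sterol-deficient medium (5% lipoprotein-deficient serum, 2 µM lovastatin, 10 µM mevalonic acid) at 0.01–10 µM. Luciferase/GFP ratio measured as pathway activity; inhibition versus DMSO fitted to a four-parameter model for IC50.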
On the technique in general: A reporter such as luciferase makes a cellular process visible.
As for `COc1cc(F)c(C(O)CCCC(C)C2CCC3C4C(CCC23C)C2(C)CCC(O)C(O)C2CC4(F)F)c(F)c1` (single isomer, unassigned) [Compound 204, (1R,3aS,3bS,5aR,6R,7S,9aR,9bS,11aR)-1-[(2R,6S)-6-(2,6-difluoro-4-methoxyphenyl)-6-hydroxyhexan-2-yl]-4,4-difluoro-9a,11a-dimethylhexadecahydro-1H-cyclopenta[1,2-a]phenanthrene-6,7-diol or (1R,3aS,3bS,5aR,6R,7S,9aR,9bS,11aR)-1-[(2R,6R)-6-(2,6-difluoro-4-methoxyphenyl)-6-hydroxyhexan-2-yl]-4,4-difluoro-9a,11a-dimethylhexadecahydro-1H-cyclopenta[1,2-a]phenanthrene-6,7-diol], the IC50 is 0.145 µM.

Regarding `C[C@H](CCC[C@H](O)c1n[nH]c2ccccc12)[C@H]1CC[C@H]2[C@H]3[C@H](CC[C@]12C)[C@@]1(C)CC[C@H](O)[C@H](O)[C@@H]1CC3(F)F` [Compound 319, (1R,3aS,3bS,5aR,6R,7S,9aR,9bS,11aR)-4,4-difluoro-1-[(2R,6S)-6-hydroxy-6-(1H-indazol-3-yl)hexan-2-yl]-9a,11a-dimethylhexadecahydro-1H-cyclopenta[1,2-a]phenanthrene-6,7-diol], the half-inhibitory concentration (IC50) amounted to 0.104 µM.

Take `C[C@H](CCCC(O)c1nnnn1C)[C@H]1CC[C@H]2[C@H]3[C@H](CC[C@]12C)[C@@]1(C)CC[C@H](O)[C@H](O)[C@@H]1CC3(F)F` (stereo partly drawn) [Compound 384, (1R,3aS,3bS,5aR,6R,7 S,9aR,9bS,11aR)-4,4-Difluoro-1-[(2R)-6-hydroxy-6-(1-methyl-1,2,3,4-tetrazol-5-yl)hexan-2-yl]-9a,11a-dimethylhexadecahydro-1H-cyclopenta[1,2-a]phenanthrene-6,7-diol]: the IC50 was found to be 0.185 µM.

As for `COc1ccnc(C[C@@H](O)CCC[C@@H](C)[C@H]2CC[C@H]3[C@H]4[C@H](CC[C@]23C)[C@@]2(C)CC[C@H](O)[C@H](O)[C@@H]2CC4(F)F)c1` (stereo in doubt) [Compound 304, (1R,3aS,3bS,5aR,6R,7S,9aR,9bS,11aR)-4,4-difluoro-1-[(2R,6S)-6-hydroxy-7-(4-methoxypyridin-2-yl)heptan-2-yl]-9a,11a-dimethylhexadecahydro-1H-cyclopenta[1,2-a]phenanthrene-6,7-diol], the IC50 came out at 0.243 µM.

For the molecule `COc1ccc(F)cc1[C@H](O)CCC[C@@H](C)[C@H]1CC[C@H]2[C@H]3[C@H](CC[C@]12C)[C@@]1(C)CC[C@H](O)[C@H](O)[C@@H]1CC3(F)F` [Compound 169, (1R,3aS,3bS,5aR,6R,7S,9aR,9bS,11aR)-4,4-difluoro-1-[(2R,6R)-6-(5-fluoro-2-methoxyphenyl)-6-hydroxyhexan-2-yl]-9a,11a-dimethylhexadecahydro-1H-cyclopenta[1,2-a]phenanthrene-6,7-diol], the IC50 was 0.075 µM.

On to `C[C@H](CCCC(O)c1ccncc1)[C@H]1CC[C@H]2[C@H]3[C@H](CC[C@]12C)[C@@]1(C)CC[C@H](O)[C@H](O)[C@@H]1CC3(F)F` (stereo partly drawn) [Compound 76, (1R,3aS,3bS,5aR,6R,7S,9aR,9bS,11aR)-4,4-difluoro-1-[(2R)-6-hydroxy-6-(pyridin-4-yl)hexan-2-yl]-9a,11a-dimethylhexadecahydro-1H-cyclopenta[1,2-a]phenanthrene-6,7-diol], for which the concentration for half-maximal inhibition (IC50) came to 0.9 µM.

Regarding `COc1c(C(O)CCC[C@@H](C)[C@H]2CC[C@H]3[C@H]4[C@H](CC[C@]23C)[C@@]2(C)CC[C@H](O)[C@H](O)[C@@H]2CC4(F)F)ccc[n+]1[O-]` (stereo partly drawn) [Compound 267, 3-[(5R)-5-[(1R,3aS,3bS,5aR,6R,7S,9aR,9bS,11aR)-4,4-difluoro-6,7-dihydroxy-9a,11a-dimethylhexadecahydro-1H-cyclopenta[1,2-a]phenanthren-1-yl]-1-hydroxyhexyl]-2-methoxypyridine-1-oxide], the IC50 is 0.424 µM.

Regarding `C[C@H](CCCC(O)c1ccc(F)nc1OCC1COC1)[C@H]1CC[C@H]2[C@H]3[C@H](CC[C@]12C)[C@@]1(C)CC[C@H](O)[C@H](O)[C@@H]1CC3(F)F` (stereo partly drawn) [Compound 383, (1R,3aS,3bS,5aR,6R,7S,9aR,9bS,11aR)-4,4-difluoro-1-[(2R)-6-{6-fluoro-2-[(oxetan-3-ylmethyl)oxy]pyridin-3-yl}-6-hydroxyhexan-2-yl]-9a,11a-dimethylhexadecahydro-1H-cyclopenta[1,2-a]phenanthrene-6,7-diol], the half-maximal inhibitory concentration (IC50) was 0.041 µM.

With `C[C@H](CCCC(O)c1cccc2nn[nH]c12)[C@H]1CC[C@H]2[C@H]3[C@H](CC[C@]12C)[C@@]1(C)CC[C@H](O)[C@H](O)[C@@H]1CC3(F)F` (stereo partly drawn) [Compound 282, (1R,3aS,3bS,5aR,6R,7 S,9aR,9bS,11aR)-4,4-Difluoro-1-[(2R)-6-hydroxy-6-(3H-benzo[d][1,2,3]triazol-4-yl)hexan-2-yl]-9a,11a-dimethylhexadecahydro-1H-cyclopenta[1,2-a]phenanthrene-6,7-diol], the IC50 was 0.389 µM.

As to `COc1ccccc1C(CCC[C@@H](C)[C@H]1CC[C@H]2[C@@H]3CC[C@H]4[C@@H](O)[C@@H](O)CC[C@]4(C)[C@H]3CC[C@]12C)OC` (stereo partly drawn) [Compound 22, 24-[methoxy(2-methoxyphenyl)methyl]-5α-cholane-3β,4β-diol], the IC50 amounted to 2.01 µM.

On to `C[C@H](CCCC(O)c1cccc2nnn(C)c12)[C@H]1CC[C@H]2[C@H]3[C@H](CC[C@]12C)[C@@]1(C)CC[C@H](O)[C@H](O)[C@@H]1CC3(F)F` (stereo partly drawn) [Compound 271, (1R,3aS,3bS,5aR,6R,7 S,9aR,9bS,11aR)-4,4-Difluoro-1-[(2R)-6-hydroxy-6-(3-methylbenzo[d][1,2,3]triazol-4-yl)hexan-2-yl]-9a,11a-dimethylhexadecahyd ro-1H-cyclopenta[1,2-a]phenanthrene-6,7-diol], for which the IC50 is 0.207 µM.

Regarding `COc1ccccc1C(O)CCC[C@@H](C)[C@H]1CC[C@H]2C3=C(F)C[C@H]4C[C@@H](O)CC[C@]4(C)[C@H]3CC[C@]12C` (stereo partly drawn) [Compound 73, (1R,3aR,5aR,7S,9aS,9bR,11aR)-4-fluoro-1-[(2R)-6-hydroxy-6-(2-methoxyphenyl)hexan-2-yl]-9a,11a-dimethyl-2,3,3a,5,5a,6,7,8,9,9a,9b,10,11,11a-tetradecahydro-1H-cyclopenta[1,2-a]phenanthren-7-ol], the concentration for half-maximal inhibition (IC50) is 0.55 µM.

With `COc1nc(C)ccc1C(O)CCC[C@@H](C)[C@H]1CC[C@H]2[C@H]3[C@H](CC[C@]12C)[C@@]1(C)CC[C@H](O)[C@H](O)[C@@H]1CC3(F)F` (single isomer, unassigned) [Compound 217, (1R,3aS,3bS,5aR,6R,7S,9aR,9bS,11aR)-4,4-difluoro-1-[(2R,6S)-6-hydroxy-6-(2-methoxy-6-methylpyridin-3-yl)hexan-2-yl]-9a,11a-dimethylhexadecahydro-1H-cyclopenta[1,2-a]phenanthrene-6,7-diol or (1R,3aS,3bS,5aR,6R,7S,9aR,9bS,11aR)-4,4-difluoro-1-[(2R,6R)-6-hydroxy-6-(2-methoxy-6-methylpyridin-3-yl)hexan-2-yl]-9a,11a-dimethylhexadecahydro-1H-cyclopenta[1,2-a]phenanthrene-6,7-diol], the IC50 was 0.21 µM.

In the case of `C[C@H](CCC[C@H](O)c1nn(C)c2ccccc12)[C@H]1CC[C@H]2[C@H]3[C@H](CC[C@]12C)[C@@]1(C)CC[C@H](O)[C@H](O)[C@@H]1CC3(F)F` [Compound 323, (1R,3aS,3bS,5aR,6R,7S,9aR,9bS,11aR)-4,4-difluoro-1-[(2R,6S)-6-hydroxy-6-(1-methylindazol-3-yl)hexan-2-yl]-9a,11a-dimethylhexadecahydro-1H-cyclopenta[1,2-a]phenanthrene-6,7-diol], the half-inhibitory concentration (IC50) was 0.262 µM.

On to `COc1cc(F)cc(OC)c1C(O)CCC[C@@H](C)[C@H]1CC[C@H]2[C@H]3[C@H](CC[C@]12C)[C@@]1(C)CC[C@H](O)[C@H](O)[C@@H]1CC3(F)F` (single isomer, unassigned) [Compound 222, (1R,3aS,3bS,5aR,6R,7S,9aR,9bS,11aR)-4,4-difluoro-1-[(2R,6S)-6-(4-fluoro-2,6-dimethoxyphenyl)-6-hydroxyhexan-2-yl]-9a,11a-dimethylhexadecahydro-1H-cyclopenta[1,2-a]phenanthrene-6,7-diol or (1R,3aS,3bS,5aR,6R,7S,9aR,9bS,11aR)-4,4-difluoro-1-[(2R,6R)-6-(4-fluoro-2,6-dimethoxyphenyl)-6-hydroxyhexan-2-yl]-9a,11a-dimethylhexadecahydro-1H-cyclopenta[1,2-a]phenanthrene-6,7-diol], for which the IC50 was 0.137 µM.

Turning to `C[C@H](CCCC(O)c1cccc(OC(F)(F)F)c1)[C@H]1CC[C@H]2[C@H]3[C@H](CC[C@]12C)[C@@]1(C)CC[C@H](O)[C@H](O)[C@@H]1CC3(F)F` (single isomer, unassigned) [Compound 190, (1R,3aS,3bS,5aR,6R,7S,9aR,9bS,11aR)-4,4-difluoro-1-[(2R,6S)-6-hydroxy-6-{^3-[(trifluoromethyl)oxy]phenyl}hexan-2-yl]-9a,11a-dimethylhexadecahydro-1H-cyclopenta[1,2-a]phenanthrene-6,7-diol or (1R,3aS,3bS,5aR,6R,7S,9aR,9bS,11aR)-4,4-difluoro-1-[(2R,6R)-6-hydroxy-6-{3-[(trifluoromethyl)oxy]phenyl}hexan-2-yl]-9a,11a-dimethylhexadecahydro-1H-cyclopenta[1,2-a]phenanthrene-6,7-diol], the half-maximal inhibitory concentration (IC50) came to 0.355 µM.

Staying with this test, now noted: Huh-7/SRE-luc cells, sterol-deficient medium, 16 hours, 0.01-10 µM.
With `COc1nc(C(O)CCC[C@@H](C)[C@H]2CC[C@H]3[C@H]4[C@H](CC[C@]23C)[C@@]2(C)CC[C@H](O)[C@H](O)[C@@H]2CC4(F)F)cs1` (single isomer, unassigned) [Compound 220, (1R,3aS,3bS,5aR,6R,7S,9aR,9bS,11aR)-4,4-difluoro-1-[(2R,6R)-6-hydroxy-6-(2-methoxy-1,3-thiazol-4-yl)hexan-2-yl]-9a,11a-dimethylhexadecahydro-1H-cyclopenta[1,2-a]phenanthrene-6,7-diol or (1R,3aS,3bS,5aR,6R,7S,9aR,9bS,11aR)-4,4-difluoro-1-[(2R,6S)-6-hydroxy-6-(2-methoxy-1,3-thiazol-4-yl)hexan-2-yl]-9a,11a-dimethylhexadecahydro-1H-cyclopenta[1,2-a]phenanthrene-6,7-diol], the IC50 is 0.04 µM.

By IC50 is commonly meant the concentration needed to halve the response being measured.
